Values joined by “and” are separate entries in the source; they are usually repeats but may differ in a detail not shown here. Equal values may be shown once.
Legend:
[1] = CellTiter‐Glo assay (cytotoxicity); conditions: human, WI-26 VA4 cells
WI‐26 VA4 cells [2] = assay: CellTiter‐Glo assay (cytotoxicity)
WI‐26 VA4 cells [3] = assay: Puromycin incorporation assay; assay type: cell-based, human
Outline: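 WI‐26 VA4 cell lysates prepared in carbonate-bicarbonate buffer with protease inhibitor; 400 ng protein coated on ELISA plates 18 h at 4°C. Puromycin incorporated into proteins detected by antibody ELISA, absorbance 450 nm with 620 nm reference; outlier values excluded based on replicates and adjacent concentrations.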

WI‐26 VA4 cells [4] = assay: Collagen ELISA (secreted pro‐collagen I)
[5] = log(inhibitor) vs. response, variable slope (four parameters), concentration in nM

With `O[C@H]1CCCN[C@@H]1CCCn1cnc2c(Cl)c(Cl)ccc21` [DWN12088] the CC50 at 72 h ([1]; CC50 (CellTiter-Glo), 72 h (Fig 5B)) was 20.3 µM, the CC50 at 72 h ([1]; CC50, 72 h (Fig 1B)) was 20.8 µM and the “CC50 fold versus HF” value (WI‐26 VA4 cells [2]; Fig 1B) was ~ 397 fold. For the same molecule, the activity at 0.01 µM (WI‐26 VA4 cells [2]; Homo sapiens, WI26VA4, read-out: CellTiter-Glo % of control, 10 nM, Experiment #1, replicates) was 107%, the activity at 0.01 µM (WI‐26 VA4 cells [2]; Homo sapiens, WI26VA4, read-out: CellTiter-Glo % of control, 10 nM, Experiment #2, replicates) was 105% and the activity at 0.03 µM (WI‐26 VA4 cells [2]; Homo sapiens, WI26VA4, read-out: CellTiter-Glo % of control, 30 nM, Experiment #1, replicates) was 95.8%. For the same molecule, the activity at 0.03 µM (WI‐26 VA4 cells [2]; Homo sapiens, WI26VA4, read-out: CellTiter-Glo % of control, 30 nM, Experiment #2, replicates) was 108%, the activity at 0.1 µM (WI‐26 VA4 cells [2]; Homo sapiens, WI26VA4, read-out: CellTiter-Glo % of control, 100 nM, Experiment #1, replicates) was 107% and the activity at 0.1 µM (WI‐26 VA4 cells [2]; Homo sapiens, WI26VA4, read-out: CellTiter-Glo % of control, 100 nM, Experiment #2, replicates) was 107%. It also gave an activity at 0.3 µM (WI‐26 VA4 cells [2]; Homo sapiens, WI26VA4, read-out: CellTiter-Glo % of control, 300 nM, Experiment #1, replicates) of 109%, an activity at 0.3 µM (WI‐26 VA4 cells [2]; Homo sapiens, WI26VA4, read-out: CellTiter-Glo % of control, 300 nM, Experiment #2, replicates) of 102% and an activity at 1 µM (WI‐26 VA4 cells [2]; Homo sapiens, WI26VA4, read-out: CellTiter-Glo % of control, 1000 nM, Experiment #1, replicates) of 106%. The activity at 1 µM (WI‐26 VA4 cells [2]; Homo sapiens, WI26VA4, read-out: CellTiter-Glo % of control, 1000 nM, Experiment #2, replicates) was 105%, the activity at 3 µM (WI‐26 VA4 cells [2]; Homo sapiens, WI26VA4, read-out: CellTiter-Glo % of control, 3000 nM, Experiment #1, replicates) was 88.2% and the activity at 3 µM (WI‐26 VA4 cells [2]; Homo sapiens, WI26VA4, read-out: CellTiter-Glo % of control, 3000 nM, Experiment #2, replicates) was 90.3%. For the same molecule, the activity at 10 µM (WI‐26 VA4 cells [2]; Homo sapiens, WI26VA4, read-out: CellTiter-Glo % of control, 10000 nM, Experiment #1, replicates) was 71.7%, the activity at 10 µM (WI‐26 VA4 cells [2]; Homo sapiens, WI26VA4, read-out: CellTiter-Glo % of control, 10000 nM, Experiment #2, replicates) was 92% and the activity at 30 µM (WI‐26 VA4 cells [2]; Homo sapiens, WI26VA4, read-out: CellTiter-Glo % of control, 30000 nM, Experiment #1, replicates) was 34.8%. For the same molecule, the activity at 30 µM (WI‐26 VA4 cells [2]; Homo sapiens, WI26VA4, read-out: CellTiter-Glo % of control, 30000 nM, Experiment #2, replicates) was 38.4%, the activity at 100 µM (WI‐26 VA4 cells [2]; Homo sapiens, WI26VA4, read-out: CellTiter-Glo % of control, 100000 nM, Experiment #1, replicates) was 26.4% and the activity at 100 µM (WI‐26 VA4 cells [2]; Homo sapiens, WI26VA4, read-out: CellTiter-Glo % of control, 100000 nM, Experiment #2, replicates) was 20.9%. For the same molecule, the activity at 0.01 µM (WI‐26 VA4 cells [2]; Homo sapiens, WI26VA4, read-out: CellTiter-Glo % of control, average, 10 nM, average) was 104%, the activity at 0.03 µM (WI‐26 VA4 cells [2]; Homo sapiens, WI26VA4, read-out: CellTiter-Glo % of control, average, 30 nM, average) was 104% and the activity at 0.1 µM (WI‐26 VA4 cells [2]; Homo sapiens, WI26VA4, read-out: CellTiter-Glo % of control, average, 100 nM, average) was 109%. It also gave an activity at 0.3 µM (WI‐26 VA4 cells [2]; Homo sapiens, WI26VA4, read-out: CellTiter-Glo % of control, average, 300 nM, average) of 108%, an activity at 1 µM (WI‐26 VA4 cells [2]; Homo sapiens, WI26VA4, read-out: CellTiter-Glo % of control, average, 1000 nM, average) of 102% and an activity at 3 µM (WI‐26 VA4 cells [2]; Homo sapiens, WI26VA4, read-out: CellTiter-Glo % of control, average, 3000 nM, average) of 84.7%. It also gave an activity at 10 µM (WI‐26 VA4 cells [2]; Homo sapiens, WI26VA4, read-out: CellTiter-Glo % of control, average, 10000 nM, average) of 77.5%, an activity at 30 µM (WI‐26 VA4 cells [2]; Homo sapiens, WI26VA4, read-out: CellTiter-Glo % of control, average, 30000 nM, average) of 34.6% and an activity at 100 µM (WI‐26 VA4 cells [2]; Homo sapiens, WI26VA4, read-out: CellTiter-Glo % of control, average, 100000 nM, average) of 22.4%. For the same molecule, the activity at 300 µM (WI‐26 VA4 cells [2]; Homo sapiens, WI26VA4, read-out: CellTiter-Glo % of control, average, 300000 nM, average) was 1.88%, the activity at 1000 µM (WI‐26 VA4 cells [2]; Homo sapiens, WI26VA4, read-out: CellTiter-Glo % of control, average, 1000000 nM, average) was 0.11% and the “CellTiter-Glo LogIC50 (best-fit value)” value (WI‐26 VA4 cells [2]; [5]) was 4.308. The “Puromycin, % of control, single replicate” value (shortened to “Puromycin, % of control”) (WI‐26 VA4 cells [3]; 30000 nM, 30 µM) was 67.68 % of control (2×) and 67.72 % of control (2×) and 65.74 % of control (2×) and 95.99 % of control and 94.34 % of control and 94.68 % of control, the “Puromycin, % of control” value (WI‐26 VA4 cells [3]; 300000 nM, 300 µM) was 0.28 % of control (2×) and -0.36 % of control (2×) and 0.08 % of control (2×) and 0.75 % of control and 0.84 % of control and 0.22 % of control and the “Puromycin, % of control” value (WI‐26 VA4 cells [3]; 1000000 nM, 1000 µM) was -0.0139 % of control (2×) and -0.24 % of control (2×) and 0.08 % of control (2×) and 0.39 % of control (2×) and 0.49 % of control. For the same molecule, the activity at 0.3 µM (WI‐26 VA4 cells [3]; Homo sapiens, WI26VA4, read-out: Puromycin, % of control, average, 300 nM) was 104%, the activity at 1 µM (WI‐26 VA4 cells [3]; Homo sapiens, WI26VA4, read-out: Puromycin, % of control, average, 1000 nM) was 109% and the activity at 3 µM (WI‐26 VA4 cells [3]; Homo sapiens, WI26VA4, read-out: Puromycin, % of control, average, 3000 nM) was 103%. For the same molecule, the activity at 30 µM (WI‐26 VA4 cells [3]; Homo sapiens, WI26VA4, read-out: Puromycin, % of control, average, 30000 nM) was 76.4%, the activity at 100 µM (WI‐26 VA4 cells [3]; Homo sapiens, WI26VA4, read-out: Puromycin, % of control, average, 100000 nM) was 29.7% and the activity at 300 µM (WI‐26 VA4 cells [3]; Homo sapiens, WI26VA4, read-out: Puromycin, % of control, average, 300000 nM) was 0.2%. It also gave an activity at 1000 µM (WI‐26 VA4 cells [3]; Homo sapiens, WI26VA4, read-out: Puromycin, % of control, average, 1000000 nM) of 0.1%, an activity at 0.3 µM (WI‐26 VA4 cells [3]; Homo sapiens, WI26VA4, read-out: Puromycin, % of control, single replicate, 300 nM) of 107% and an activity at 1 µM (WI‐26 VA4 cells [3]; Homo sapiens, WI26VA4, read-out: Puromycin, % of control, single replicate, 1000 nM) of 107%. For the same molecule, the activity at 3 µM (WI‐26 VA4 cells [3]; Homo sapiens, WI26VA4, read-out: Puromycin, % of control, single replicate, 3000 nM) was 99.5%, the activity at 10 µM (WI‐26 VA4 cells [3]; Homo sapiens, WI26VA4, read-out: Puromycin, % of control, single replicate, 10000 nM) was 98.3% and the activity at 100 µM (WI‐26 VA4 cells [3]; Homo sapiens, WI26VA4, read-out: Puromycin, % of control, single replicate, 100000 nM) was 27.4%. For the same molecule, the IC50 (WI‐26 VA4 cells [3]; Homo sapiens, WI26VA4, read-out: Puromycin, IC50 (best-fit value)) was 56.8 µM, the “Puromycin, HillSlope (best-fit value)” value (WI‐26 VA4 cells [3]; log(inhibitor) vs. response, variable slope (four parameters)) was -1.616 and the “Puromycin, LogIC50 (best-fit value)” value (WI‐26 VA4 cells [3]; [5]) was 4.754. For the same molecule, the “Collagen, % of control (single replicates per experiment)” value (WI‐26 VA4 cells [4]; 10 nM, 0.01 µM) was 101.76 % of control, the “Collagen, % of control (single replicates per experiment)” value (WI‐26 VA4 cells [4]; 30 nM, 0.03 µM) was 120.03 % of control and 114.52 % of control and 91.73 % of control and 89.16 % of control and 97.48 % of control and 99.13 % of control and 133.18 % of control and 134.10 % of control and the “Collagen, % of control (single replicates per experiment)” value (WI‐26 VA4 cells [4]; 100 nM, 0.1 µM) was 111.05 % of control and 113.92 % of control and 88.23 % of control and 93.03 % of control and 102.46 % of control and 102.99 % of control and 133.45 % of control and 119.32 % of control. For the same molecule, the “Collagen, % of control (single replicates per experiment)” value (WI‐26 VA4 cells [4]; 300 nM, 0.3 µM) was 97.76 % of control and 92.78 % of control and 92.20 % of control and 87.32 % of control and 95.43 % of control and 105.10 % of control and 105.64 % of control and 109.03 % of control, the “Collagen, % of control (single replicates per experiment)” value (WI‐26 VA4 cells [4]; 1000 nM, 1 µM) was 75.49 % of control and 75.29 % of control and 77.13 % of control and 68.65 % of control and 66.58 % of control and 66.40 % of control and 103.27 % of control and 103.19 % of control and the “Collagen, % of control (single replicates per experiment)” value (WI‐26 VA4 cells [4]; 3000 nM, 3 µM) was 24.90 % of control and 21.92 % of control. The “TI (CC50/IC50 for collagen level)” value (WI‐26 VA4 cells [4]; Fig 1C) was 10.29, the “CC50/collagen IC50” value (WI‐26 VA4 cells [4]; Fig 5E) was 10.07 and the IC50 (WI‐26 VA4 cells [4]; Homo sapiens, WI26VA4, 72 h, read-out: IC50 for collagen level) was 2.02 µM. For the same molecule, the IC50 (WI‐26 VA4 cells [4]; Homo sapiens, WI26VA4, read-out: Collagen IC50 (best-fit value)) was 2.02 µM, the activity at 0.01 µM (WI‐26 VA4 cells [4]; Homo sapiens, WI26VA4, read-out: Collagen, % of control (single replicates per experiment), 10 nM) was 101% and the activity at 300 µM (WI‐26 VA4 cells [4]; Homo sapiens, WI26VA4, read-out: Collagen, % of control (single replicates per experiment), 300000 nM) was 3.81%. The activity at 0.01 µM (WI‐26 VA4 cells [4]; Homo sapiens, WI26VA4, read-out: Collagen, % of control, average, 10 nM, average) was 101%, the activity at 0.03 µM (WI‐26 VA4 cells [4]; Homo sapiens, WI26VA4, read-out: Collagen, % of control, average, 30 nM, average) was 103% and the activity at 0.1 µM (WI‐26 VA4 cells [4]; Homo sapiens, WI26VA4, read-out: Collagen, % of control, average, 100 nM, average) was 105%. It also gave an activity at 0.3 µM (WI‐26 VA4 cells [4]; Homo sapiens, WI26VA4, read-out: Collagen, % of control, average, 300 nM, average) of 96.4% and an activity at 1 µM (WI‐26 VA4 cells [4]; Homo sapiens, WI26VA4, read-out: Collagen, % of control, average, 1000 nM, average) of 78.8%.

From publication PMC10331583, “Control of fibrosis with enhanced safety via asymmetric inhibition of prolyl‐tRNA synthetase 1” (EMBO Molecular Medicine, 2023)
